Data reported in PubChem BioAssay (NCI).
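Method: 48-hour compound exposure of cells in 96-well plates, five concentrations, linear interpolation of endpoints. The concentration for full growth arrest is given as TGI.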

Legend:
Assay in all cases: NCI anticancer screen, dose series, 48 h
DMS 273 small cell lung = tested on: DMS 273 small cell lung
SF-539 CNS = tested on: SF-539 CNS
COLO 205 colon = tested on: COLO 205 colon
KM12 colon = tested on: KM12 colon
UACC-62 melanoma = tested on: UACC-62 melanoma
MOLT-4 leukemia = tested on: MOLT-4 leukemia
K-562 leukemia = tested on: K-562 leukemia
SK-OV-3 ovarian = tested on: SK-OV-3 ovarian
NCI-H23 lung = tested on: NCI-H23 lung
A549 NSCLC = tested on: A549 NSCLC
RXF-631 renal = tested on: RXF-631 renal
HOP-92 NSCLC = tested on: HOP-92 NSCLC
SNB-75 CNS = tested on: SNB-75 CNS
SK-MEL-5 melanoma = tested on: SK-MEL-5 melanoma
SF-268 CNS = tested on: SF-268 CNS
HOP-62 NSCLC = tested on: HOP-62 NSCLC
SF-295 CNS = tested on: SF-295 CNS
HL-60(TB) leukemia = tested on: HL-60(TB) leukemia
SW-620 colon = tested on: SW-620 colon
HCT-116 colon = tested on: HCT-116 colon
SK-MEL-28 melanoma = tested on: SK-MEL-28 melanoma
OVCAR-5 ovarian = tested on: OVCAR-5 ovarian
786-0 renal = tested on: 786-0 renal
MALME-3M melanoma = tested on: MALME-3M melanoma
M19-MEL melanoma = tested on: M19-MEL melanoma
LOX IMVI melanoma = tested on: LOX IMVI melanoma
CAKI-1 renal = tested on: CAKI-1 renal
OVCAR-8 ovarian = tested on: OVCAR-8 ovarian
NCI-H460 lung = tested on: NCI-H460 lung
EKVX NSCLC = tested on: EKVX NSCLC
RPMI-8226 leukemia = tested on: RPMI-8226 leukemia
HCT-15 colon = tested on: HCT-15 colon
RXF 393 renal = tested on: RXF 393 renal
OVCAR-3 ovarian = tested on: OVCAR-3 ovarian
SNB-78 CNS = tested on: SNB-78 CNS
KM20L2 colon = tested on: KM20L2 colon
OVCAR-4 ovarian = tested on: OVCAR-4 ovarian
SK-MEL-2 melanoma = tested on: SK-MEL-2 melanoma
UO-31 renal = tested on: UO-31 renal
SN12C renal = tested on: SN12C renal
NCI-H522 lung = tested on: NCI-H522 lung
IGROV1 ovarian = tested on: IGROV1 ovarian
TK-10 renal = tested on: TK-10 renal
M14 melanoma = tested on: M14 melanoma
U251 CNS = tested on: U251 CNS
UACC-257 melanoma = tested on: UACC-257 melanoma
ACHN renal = tested on: ACHN renal
DLD-1 colon = tested on: DLD-1 colon
LXFL 529 NSCLC = tested on: LXFL 529 NSCLC
SNB-19 CNS = tested on: SNB-19 CNS
CCRF-CEM leukemia = tested on: CCRF-CEM leukemia
HCC-2998 colon = tested on: HCC-2998 colon
A498 renal = tested on: A498 renal
HT29 colon = tested on: HT29 colon
SR leukemia = tested on: SR leukemia
HOP-18 NSCLC = tested on: HOP-18 NSCLC
DMS 114 small cell lung = tested on: DMS 114 small cell lung
XF 498 CNS = tested on: XF 498 CNS
NCI-H226 lung = tested on: NCI-H226 lung
MDA-MB-435 = tested on: MDA-MB-435
DU-145 prostate = tested on: DU-145 prostate
MDA-MB-231 breast = tested on: MDA-MB-231 breast
MCF7 breast = tested on: MCF7 breast
HS 578T breast = tested on: HS 578T breast
T-47D breast = tested on: T-47D breast
MDA-N = tested on: MDA-N
BT-549 breast = tested on: BT-549 breast
NCI/ADR-RES ovarian = tested on: NCI/ADR-RES ovarian
PC-3 prostate = tested on: PC-3 prostate

Cc1nc2ccccc2nc1CC(=O)C(=O)Nc1ccc(Cl)cc1Cl
TGI (DMS 273 small cell lung): > 100 µM | TGI (SF-539 CNS): > 100 µM | TGI (COLO 205 colon): > 100 µM | TGI (KM12 colon): > 100 µM | TGI (UACC-62 melanoma): > 100 µM | TGI (MOLT-4 leukemia): > 100 µM | TGI (K-562 leukemia): > 100 µM | TGI (SK-OV-3 ovarian): > 100 µM | TGI (NCI-H23 lung): > 100 µM | TGI (A549 NSCLC): > 100 µM | TGI (RXF-631 renal): > 100 µM | TGI (HOP-92 NSCLC): > 100 µM | TGI (SNB-75 CNS): > 100 µM | TGI (SK-MEL-5 melanoma): > 100 µM | TGI (SF-268 CNS): > 100 µM | TGI (HOP-62 NSCLC): > 100 µM | TGI (SF-295 CNS): > 100 µM | TGI (HL-60(TB) leukemia): > 100 µM | TGI (SW-620 colon): > 100 µM | TGI (HCT-116 colon): > 100 µM | TGI (SK-MEL-28 melanoma): > 100 µM | TGI (OVCAR-5 ovarian): > 100 µM | TGI (786-0 renal): > 100 µM | TGI (MALME-3M melanoma): > 100 µM | TGI (M19-MEL melanoma): > 100 µM | TGI (LOX IMVI melanoma): > 100 µM | TGI (CAKI-1 renal): > 100 µM | TGI (OVCAR-8 ovarian): > 100 µM | TGI (NCI-H460 lung): > 100 µM | TGI (EKVX NSCLC): > 100 µM | TGI (RPMI-8226 leukemia): > 100 µM | TGI (HCT-15 colon): > 100 µM | TGI (RXF 393 renal): > 100 µM | TGI (OVCAR-3 ovarian): > 100 µM | TGI (SNB-78 CNS): > 100 µM | TGI (KM20L2 colon): > 100 µM | TGI (OVCAR-4 ovarian): > 100 µM | TGI (SK-MEL-2 melanoma): > 100 µM | TGI (UO-31 renal): > 100 µM | TGI (SN12C renal): > 100 µM | TGI (NCI-H522 lung): > 100 µM | TGI (IGROV1 ovarian): > 100 µM | TGI (TK-10 renal): > 100 µM | TGI (M14 melanoma): > 100 µM | TGI (U251 CNS): > 100 µM | TGI (UACC-257 melanoma): > 100 µM | TGI (ACHN renal): > 100 µM | TGI (DLD-1 colon): > 100 µM | TGI (LXFL 529 NSCLC): > 100 µM | TGI (SNB-19 CNS): > 100 µM | TGI (CCRF-CEM leukemia): > 100 µM | TGI (HCC-2998 colon): > 100 µM | TGI (A498 renal): > 100 µM

C[C@]12CCC3[C@@H](CCC45OC4C(=O)CC[C@]35C)C1Cc1cnn(-c3ccc(F)cc3)c1N2 (some centres not stated)
TGI (DMS 273 small cell lung): 38.9 µM | TGI (COLO 205 colon): > 100 µM | TGI (KM12 colon): 55.1 µM | TGI (UACC-62 melanoma): 68.9 µM | TGI (HT29 colon): 33 µM | TGI (MOLT-4 leukemia): 94.7 µM | TGI (SR leukemia): > 100 µM | TGI (K-562 leukemia): 66.8 µM | TGI (SK-OV-3 ovarian): > 100 µM | TGI (NCI-H23 lung): 54.4 µM | TGI (A549 NSCLC): > 100 µM | TGI (SNB-75 CNS): > 100 µM | TGI (SK-MEL-5 melanoma): > 100 µM | TGI (SF-268 CNS): 77.8 µM | TGI (HOP-62 NSCLC): > 100 µM | TGI (SF-295 CNS): > 100 µM | TGI (HL-60(TB) leukemia): 41.9 µM | TGI (SW-620 colon): 97 µM | TGI (HCT-116 colon): 29 µM | TGI (SK-MEL-28 melanoma): 85.2 µM | TGI (786-0 renal): 35.2 µM | TGI (MALME-3M melanoma): > 100 µM | TGI (M19-MEL melanoma): > 100 µM | TGI (LOX IMVI melanoma): 31.9 µM | TGI (OVCAR-8 ovarian): > 100 µM | TGI (HOP-18 NSCLC): > 100 µM | TGI (NCI-H460 lung): > 100 µM | TGI (EKVX NSCLC): > 100 µM | TGI (RPMI-8226 leukemia): 54.7 µM | TGI (HCT-15 colon): 33.9 µM | TGI (DMS 114 small cell lung): 50.5 µM | TGI (RXF 393 renal): 87.2 µM | TGI (SNB-78 CNS): 79 µM | TGI (KM20L2 colon): 62.6 µM | TGI (SK-MEL-2 melanoma): > 100 µM | TGI (UO-31 renal): > 100 µM | TGI (SN12C renal): 48.4 µM | TGI (NCI-H522 lung): 34.8 µM | TGI (XF 498 CNS): > 100 µM | TGI (NCI-H226 lung): > 100 µM | TGI (TK-10 renal): > 100 µM | TGI (M14 melanoma): > 100 µM | TGI (U251 CNS): 98 µM | TGI (UACC-257 melanoma): > 100 µM | TGI (ACHN renal): > 100 µM | TGI (LXFL 529 NSCLC): > 100 µM | TGI (SNB-19 CNS): 92.6 µM | TGI (CCRF-CEM leukemia): > 100 µM

CCCCCCN(CCCCCC)C(=S)N/N=C(\C)c1ccccn1
TGI (MDA-MB-435): 3.7 µM | TGI (DMS 273 small cell lung): 3.92 µM | TGI (SF-539 CNS): 2.77 µM | TGI (DU-145 prostate): 2.59 µM | TGI (COLO 205 colon): 2.14 µM | TGI (KM12 colon): 2.73 µM | TGI (UACC-62 melanoma): 3.5 µM | TGI (HT29 colon): 4.29 µM | TGI (MDA-MB-231 breast): 2.76 µM | TGI (MOLT-4 leukemia): 5.79 µM | TGI (SR leukemia): 11.5 µM | TGI (K-562 leukemia): 4.64 µM | TGI (SK-OV-3 ovarian): 2.77 µM | TGI (MCF7 breast): 3.16 µM | TGI (NCI-H23 lung): 3.27 µM | TGI (A549 NSCLC): 3.66 µM | TGI (RXF-631 renal): 3.67 µM | TGI (HS 578T breast): 4.46 µM | TGI (HOP-92 NSCLC): 6.43 µM | TGI (SNB-75 CNS): 3.68 µM | TGI (SK-MEL-5 melanoma): 2.57 µM | TGI (T-47D breast): 1.91 µM | TGI (SF-268 CNS): 3.52 µM | TGI (HOP-62 NSCLC): 3.32 µM | TGI (SF-295 CNS): 3.19 µM | TGI (HL-60(TB) leukemia): 2.3 µM | TGI (MDA-N): 5.56 µM | TGI (SW-620 colon): 4.77 µM | TGI (HCT-116 colon): 2.39 µM | TGI (BT-549 breast): 3.8 µM | TGI (SK-MEL-28 melanoma): 3.04 µM | TGI (OVCAR-5 ovarian): 5.59 µM | TGI (786-0 renal): 2.38 µM | TGI (MALME-3M melanoma): 3.17 µM | TGI (LOX IMVI melanoma): 2.59 µM | TGI (CAKI-1 renal): 2.68 µM | TGI (OVCAR-8 ovarian): 3.38 µM | TGI (NCI-H460 lung): 2.97 µM | TGI (EKVX NSCLC): 3.01 µM | TGI (RPMI-8226 leukemia): 3.22 µM | TGI (HCT-15 colon): 3.4 µM | TGI (DMS 114 small cell lung): 2.29 µM | TGI (RXF 393 renal): 2.78 µM | TGI (OVCAR-3 ovarian): 2.83 µM | TGI (SNB-78 CNS): 2.34 µM | TGI (KM20L2 colon): 2.34 µM | TGI (OVCAR-4 ovarian): 3.16 µM | TGI (SK-MEL-2 melanoma): 3.02 µM | TGI (UO-31 renal): 3.07 µM | TGI (SN12C renal): 2.56 µM | TGI (NCI-H522 lung): 2.7 µM | TGI (NCI-H226 lung): 2.27 µM | TGI (IGROV1 ovarian): 2.62 µM | TGI (TK-10 renal): 2.5 µM | TGI (M14 melanoma): 3.29 µM | TGI (U251 CNS): 1.71 µM | TGI (NCI/ADR-RES ovarian): 4.27 µM | TGI (PC-3 prostate): 1.88 µM | TGI (UACC-257 melanoma): 4.34 µM | TGI (ACHN renal): 2.17 µM | TGI (DLD-1 colon): 2.93 µM | TGI (LXFL 529 NSCLC): 1.45 µM | TGI (SNB-19 CNS): 3.92 µM | TGI (CCRF-CEM leukemia): 4.39 µM | TGI (HCC-2998 colon): 9.03 µM | TGI (A498 renal): 9.29 µM
